According to the NIST ThermoML archive (doi:10.1016/j.jct.2017.05.020):
± gives the expanded uncertainty stated by the source.

How the values were obtained:
[1] = wn = mass fraction of the nth substance listed; details: 100 kPa, Liquid, Vibrating tube method
[2] = refractive index (Na D-line) (dimensionless); wn = mass fraction of the nth substance listed; details: 100 kPa, Liquid, Standard Abbe refractometry
[3] = 100 kPa, Liquid, Vibrating tube method
[4] = refractive index (Na D-line) (dimensionless); details: 100 kPa, Liquid, Standard Abbe refractometry

C=CC[P+](c1ccccc1)(c1ccccc1)c1ccccc1.[Br-] [allyltriphenylphosphonium bromide] + OCCOCCO
Details | mass density, w1 = 0.1842 [kg/m3] | mass density, w1 = 0.2653 [kg/m3] | mass density, w1 = 0.4745 [kg/m3] | refractive index, w1 = 0.1842 | refractive index, w1 = 0.2653 | refractive index, w1 = 0.4745
[1], 293.15 K | 1146.3 ± 7.5 | 1159.9 ± 7.6 | 1201.1 ± 7.6 | – | – | –
[1], 298.15 K | 1142.7 ± 7.4 | 1156.3 ± 7.6 | 1197.5 ± 7.6 | – | – | –
[1], 303.15 K | 1139.1 ± 7.4 | 1152.6 ± 7.5 | 1193.8 ± 7.6 | – | – | –
[1], 308.15 K | 1135.5 ± 7.4 | 1149 ± 7.5 | 1190.1 ± 7.6 | – | – | –
[1], 313.15 K | 1131.9 ± 7.4 | 1145.3 ± 7.5 | 1186.4 ± 7.5 | – | – | –
[1], 318.15 K | 1128.2 ± 7.3 | 1141.7 ± 7.5 | 1182.7 ± 7.5 | – | – | –
[1], 323.15 K | 1124.6 ± 7.3 | 1138 ± 7.4 | 1179 ± 7.5 | – | – | –
[1], 328.15 K | 1121 ± 7.3 | 1134.4 ± 7.4 | 1175.4 ± 7.5 | – | – | –
[1], 333.15 K | 1117.3 ± 7.3 | 1130.7 ± 7.4 | 1171.7 ± 7.4 | – | – | –
[1], 338.15 K | 1113.6 ± 7.2 | 1127 ± 7.4 | 1167.9 ± 7.4 | – | – | –
[1], 343.15 K | 1109.9 ± 7.2 | 1123.3 ± 7.4 | 1164.2 ± 7.4 | – | – | –
[2], 293.15 K | – | – | – | 1.4817 ± 0.0036 | 1.4955 ± 0.0037 | 1.5446 ± 0.0039
[2], 298.15 K | – | – | – | 1.4801 ± 0.0036 | 1.4938 ± 0.0038 | 1.543 ± 0.0039
[2], 303.15 K | – | – | – | 1.4784 ± 0.0036 | 1.4921 ± 0.0038 | 1.5413 ± 0.0039
[2], 308.15 K | – | – | – | 1.4768 ± 0.0036 | 1.4904 ± 0.0037 | 1.5396 ± 0.0039
[2], 313.15 K | – | – | – | 1.4752 ± 0.0036 | 1.4887 ± 0.0037 | 1.538 ± 0.0039
[2], 318.15 K | – | – | – | 1.4735 ± 0.0036 | 1.487 ± 0.0037 | 1.5363 ± 0.0039
[2], 323.15 K | – | – | – | 1.4718 ± 0.0036 | 1.4853 ± 0.0037 | 1.5346 ± 0.0039
[2], 328.15 K | – | – | – | 1.4701 ± 0.0036 | 1.4836 ± 0.0037 | 1.5329 ± 0.0039
[2], 333.15 K | – | – | – | 1.4684 ± 0.0035 | 1.4819 ± 0.0037 | 1.5313 ± 0.0039
[2], 338.15 K | – | – | – | 1.4668 ± 0.0035 | 1.4802 ± 0.0037 | 1.5296 ± 0.0039
[2], 343.15 K | – | – | – | 1.4651 ± 0.0035 | 1.4785 ± 0.0037 | 1.5279 ± 0.0039

OCCOCCOCCO [triethylene glycol]
Details | mass density, [3] [kg/m3] | refractive index, [4]
293.15 K | 1124.6 ± 7.9 | 1.4576 ± 0.0035
298.15 K | 1120.8 ± 7.9 | 1.4558 ± 0.0035
303.15 K | 1116.9 ± 7.8 | 1.4541 ± 0.0035
308.15 K | 1113 ± 7.8 | 1.4523 ± 0.0035
313.15 K | 1109.1 ± 7.8 | 1.4505 ± 0.0035
318.15 K | 1105.2 ± 7.7 | 1.4488 ± 0.0035
323.15 K | 1101.3 ± 7.7 | 1.4469 ± 0.0035
328.15 K | 1097.4 ± 7.7 | 1.445 ± 0.0035
333.15 K | 1093.5 ± 7.7 | 1.4434 ± 0.0035
338.15 K | 1089.6 ± 7.6 | 1.4417 ± 0.0035
343.15 K | 1085.6 ± 7.6 | 1.4399 ± 0.0035

OCCOCCOCCO [triethylene glycol] + C=CC[P+](c1ccccc1)(c1ccccc1)c1ccccc1.[Br-]
w2 = 0
Details | mass density, [1] [kg/m3] | refractive index, [2]
293.15 K | 1124.6 ± 7.9 | 1.4576 ± 0.0035
298.15 K | 1120.8 ± 7.9 | 1.4558 ± 0.0035
303.15 K | 1116.9 ± 7.8 | 1.4541 ± 0.0035
308.15 K | 1113 ± 7.8 | 1.4523 ± 0.0035
313.15 K | 1109.1 ± 7.8 | 1.4505 ± 0.0035
318.15 K | 1105.2 ± 7.7 | 1.4488 ± 0.0035
323.15 K | 1101.3 ± 7.7 | 1.4469 ± 0.0035
328.15 K | 1097.4 ± 7.7 | 1.445 ± 0.0035
333.15 K | 1093.5 ± 7.7 | 1.4434 ± 0.0035
338.15 K | 1089.6 ± 7.6 | 1.4417 ± 0.0035
343.15 K | 1085.6 ± 7.6 | 1.4399 ± 0.0035
